In patent US11999746B2, “Compounds” (GlaxoSmithKline Intellectual Property Development Limited, priority 2014, dated 2024):
Where two headings read alike, the source gives them in different places.

What was measured:
[1] = molecular target: T1, Lp-PLA2 in human plasma (Homo sapiens, UniProt Q13093); test: (3b) Lp-PLA2 human plasma alternative Thio-PAF assay; type: biochemical; conditions: pooled human plasma, read-out: pIC50 in the Lp-PLA2 human plasma assay (converted)
T1 construct: from tissue; host or cells: pooled human plasma
T1 sequence (Q13093 22-441): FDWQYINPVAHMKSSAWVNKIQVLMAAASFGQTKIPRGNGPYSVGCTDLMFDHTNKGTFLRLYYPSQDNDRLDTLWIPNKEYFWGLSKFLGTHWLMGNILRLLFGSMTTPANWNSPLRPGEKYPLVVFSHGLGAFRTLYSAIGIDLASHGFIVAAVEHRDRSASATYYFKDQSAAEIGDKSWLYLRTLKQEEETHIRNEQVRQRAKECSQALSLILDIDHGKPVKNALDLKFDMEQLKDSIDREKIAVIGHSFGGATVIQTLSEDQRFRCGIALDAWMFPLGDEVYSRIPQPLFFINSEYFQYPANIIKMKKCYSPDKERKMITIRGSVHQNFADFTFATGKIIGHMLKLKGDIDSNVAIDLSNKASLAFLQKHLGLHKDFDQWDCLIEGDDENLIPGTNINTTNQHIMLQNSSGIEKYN
Experimental: (3b) Alternative Thio-PAF Assay
The human plasma assay utilizes the same thioester analog of PAF as described in (1b) “hr ThioPAF” assay. This assay may detect the activity of Lp-PLA2 in human plasma, as determined by specific inhibition by Lp-PLA2 inhibitors.
The thio-PAF assay was run as a quenched 20 μL assay. Compounds source plate was prepared by making 1:3 (by volume) serial dilution of the compounds into pure DMSO on 96-well microplate. 5 μL of compounds on compound source plate were transferred to 96-well Corning 3686 (black) low-volume plates by STAR+(Hamilton) liquid dispenser. 10 μL pooled human plasma, which was previously aliquoted and frozen, was added. Plates were centrifuged for 30 sec at 1000 rpm. After 15 minutes preincubation at room temperature, 5 μL of substrate solution comprising 2 mM 2-thio-PAF [from ethanol stock], 52 μM CPM [from a DMSO stock] and 2.5 mM NEM (N-ethylmaleimide) [made fresh daily in DMSO] in assay buffer (50 mM HEPES, pH 7.4, 150 mM NaCl, 1 mM CHAPS) was added to 96-well Corning 3686 (black) low-volume plates. After 3 mins, reaction was quenched with 10 μL of 5% aqueous trifluoroacetic acid (TFA). Plates were centrifuged 30 sec at 1000 rpm, covered to protect from light and incubated for 10 min at room temperature. Plates were read at ex: 380 nm/em: 485 nm using Envision plate reader (Perkin Elmer). Raw data were transferred to Excel software and pIC50 data, curve and QC analysis was conducted by using XL fit module in Excel.

[2] = molecular target: T2, recombinant human Lp-PLA2 (Homo sapiens, UniProt Q13093); test: (1b) hrThioPAF assay, recombinant human Lp-PLA2; type: biochemical; conditions: Examples 266-412 were tested here, one experiment or average of multiple experiments, read-out: rhLp-PLA2 (pIC50) (converted)
T2 sequence (Q13093 22-441): T1 sequence (Q13093 22-441)
Description: 1-O-Hexadecyl-2-deoxy-2-thio-S-acetyl-sn-glyceryl-3-phosphorylcholine (2-thio-PAF) is a substrate for PAF-hydrolases (PAF-AH) commercially available from Cayman Chemical. Upon cleavage with PAF-AH, the free thiol is released at the sn-2 position and can then react with 7-diethylamino-3-(4′-maleimidylphenyl)-4-methylcoumarin (CPM) a thiol-reactive coumarin. This reaction (Michael addition) results in an increase in fluorescence. Inhibitors of Lp-PLA2 therefore prevent this cleavage and no fluorescent increase is observed.
The Thio-PAF assay was run as an unquenched 20 μL assay. The source plate containing the compounds to be tested was prepared by making 1:3 (by volume) serial dilution of the compounds within DMSO on 384-well microplate. Then, 5 μL of the compounds on compound source plate were transferred into 384 well Greiner 784076 (black) plates using STAR+(Hamilton) liquid dispenser. 10 μL of recombinant human Lp-PLA2 enzyme (20 pM rhLp-PLA2 in assay buffer of 50 mM HEPES, pH 7.4, 150 mM NaCl, 1 mM CHAPS) was added to each well of the plate. 5 μL of substrate comprising 40 μM 2-thio-PAF [from ethanol stock], 40 μM CPM [from a DMSO stock] and 400 μM NEM (N-ethylmaleimide) [made fresh daily in DMSO] in assay buffer (50 mM HEPES, pH 7.4, 150 mM NaCl, 1 mM CHAPS) was added to 384 well Greiner 784076 black plates. Plates were vortexed for 10 sec. The plate was covered to protect it from light and incubated for 20 min at 25° C. The plates were read for fluorescence intensity at ex: 380 nm/em: 485 nm using Envision plate reader (Perkin Elmer). Raw data were transferred to Excel software and pIC50 data, curve and QC analysis was conducted by using XL fit module in Excel.

[3] = (3b) alternative Thio-PAF assay, Examples of 266-412 were tested here
[4] = (3a) Thio-PAF assay, Examples 1-265 and 413-430 were tested here

Row | Structure (SMILES) | IC50 [1, 3] | IC50 [2] | IC50 [1, 4]
1 | O=c1nc(OCc2cc(F)c(Oc3cncc(C(F)(F)F)c3)c(F)c2)cc2n1CC1(CCOCC1)N2 [Example 401, 7-((3,5-Difluoro-4-((5-(trifluoromethyl)pyridin-3-yl)oxy)benzyl)oxy)-2′,3′,5′,6′-tetrahydro-1H-spiro[imidazo[1,2-c]pyrimidine-2,4′-pyran]-5(3H)-one] | ≤ 100 nM | 0.631 nM | 
2 | O=c1nc(OCc2ccc(F)c(F)c2)cc2n1CC1(CCOCC1)N2 [Example 402, 7-((3,4-Difluorobenzyl)oxy)-2′,3′,5′,6′-tetrahydro-1H-spiro[imidazo[1,2-c]pyrimidine-2,4′-pyran]-5(3H)-one] | ≤ 100 nM | ≤ 10000 nM | 
3 | Cc1ccc(Oc2c(F)cc(COc3cc4n(c(=O)n3)CC3(CCOCC3)N4)cc2F)cn1 [Example 403, 7-((3,5-Difluoro-4-((6-methylpyridin-3-yl)oxy)benzyl)oxy)-2′,3′,5′,6′-tetrahydro-1H-spiro[imidazo[1,2-c]pyrimidine-2,4′-pyran]-5(3H)-one] | ≤ 100 nM | ≤ 10000 nM | 
4 | Cc1ccc(Oc2c(F)cc(COc3cc4n(c(=O)n3)CC3(CCOCC3)N4C)cc2F)cn1 [Example 405, 7-((3,5-Difluoro-4-((6-methylpyridin-3-yl)oxy)benzyl)oxy)-1-methyl-2′,3′,5′,6′-tetrahydro-1H-spiro[imidazo[1,2-c]pyrimidine-2,4′-pyran]-5(3H)-one] | ≤ 100 nM | ≤ 100 nM | 
5 | O=c1nc(OCc2ccc(F)c(F)c2)cc2n1CC1(CCNCC1)N2 [Example 406, 7-((3,4-Difluorobenzyl)oxy)-1H-spiro[imidazo[1,2-c]pyrimidine-2,4′-piperidin]-5(3H)-one] | ≤ 100 nM | ≤ 10000 nM | 
6 | CC(=O)N1CCC2(CC1)Cn1c(cc(OCc3ccc(F)c(F)c3)nc1=O)N2C(C)=O [Example 408, 1,1-(7-((3,4-difluorobenzyl)oxy)-5-oxo-1H-spiro[imidazo[1,2-c]pyrimidine-2,4′-piperidin]-1,1′(3H,5H)-diyl)diethanone] | ≤ 100 nM | ≤ 10000 nM | 
7 | O=c1nc(OCc2cc(F)c(Oc3cncc(C(F)(F)F)c3)c(F)c2)cc2n1CC1(CCN(Cc3ccccc3)CC1)N2 [Example 411, 1′-Benzyl-7-((3,5-difluoro-4-((5-(trifluoromethyl)pyridin-3-yl)oxy)benzyl)oxy)-1H-spiro[imidazo[1,2-c]pyrimidine-2,4′-piperidin]-5(3H)-one] | ≤ 100 nM | ≤ 1 nM | ≤ 10000 nM
8 | N#Cc1cc(COc2cc3n(c(=O)n2)CC2(CCN(Cc4ccccc4)CC2)N3)ccc1F [Example 412, 5-(((1′-Benzyl-5-oxo-3,5-dihydro-1H-spiro[imidazo[1,2-c]pyrimidine-2,4′-piperidin]-7-yl)oxy)methyl)-2-fluorobenzonitrile] |  | ≤ 10000 nM | ≤ 10000 nM
9 | N#Cc1cc(COc2cc3n(c(=O)n2)CC2CNCCN32)ccc1F (centres unmarked) [Example E266, 2-Fluoro-5-(((9-oxo-2,3,4,9,11,11a-hexahydro-1H-pyrazino[1′,2′:3,4]imidazo[1,2-c]pyrimidin-7-yl)oxy)methyl)benzonitrile] | ≤ 100 nM | ≤ 100 nM | 
10 | O=c1nc(OCc2ccc(Oc3ccnc(C(F)(F)F)c3)c(F)c2)cc2n1CC1CNCCN21 (centres unmarked) [Example E267, 7-((3-Fluoro-4-((2-(trifluoromethyl)pyridin-4-yl)oxy)benzyl)oxy)-3,4,11,11a-tetrahydro-1H-pyrazino[1′,2′:3,4] imidazo [1,2-c]pyrimidin-9(2H)-one] | ≤ 100 nM | ≤ 100 nM | 
11 | O=C(O)C(F)(F)F.[2H]C1([2H])C2CNCCN2c2cc(OCc3ccc(F)c(C#N)c3)nc(=O)n21 (centres unmarked) [Example E269, 5-(((11,11-Dideutero-9-oxo-2,3,4,9,11,11a-hexahydro-1H-pyrazino[1′,2′:3,4]imidazo [1,2-c]pyrimidin-7-yl)oxy)methyl)-2-fluorobenzonitrile 2,2,2-trifluoroacetate] | ≤ 100 nM | ≤ 10000 nM | 
